According to patent publication US20060106107A1, “L-tartrate salt of N-1-Adamantyl-2-{3-[(2R)-2-({(2R)-2-hydroxy-2-[4-hydroxy-3-(hydroxymethyl)phenyl]ethyl}amino)propyl] phenyl}acetamide” (priority 2004, published 2006):

Target: T1, human β2 adrenergic receptor (Homo sapiens, UniProt P07550)
T1 construct: expressed in transfected cells; host or cells: CHO (Chinese Hamster Ovary) cells, CHOhβ2
Experiment: cAMP Flashplate assay in CHO cells recombinantly expressing the human β2 adrenergic receptor (agonist potency)
Format: cell-based
Details: CHOhβ2 cells, 1 hour incubation, 125I-cAMP Flashplate; data expressed as % Isoprenaline activity, four parameter sigmoid fit
Description: According to another alternative, the agonist potency for the β2 receptor of the L-tartrate salt of the invention may also be determined by the measure of the concentration of compound according to the present invention required to produce half maximal effect (EC50) for the β2 receptor.
10 mM/100% DMSO (dimethylsulfoxide) stock of compound is diluted to required top dose in 4% DMSO. This top dose is used to construct a 10-point semi-log dilution curve, all in 4% DMSO. Isoprenaline (Sigma, I-5627) was used as a standard in every experiment and for control wells on each plate. Data was expressed as % Isoprenaline response. […]
25 μl/well each dose of compound was transferred into a cAMP-Flashplate® (NEN, SMP004B), with 1% DMSO as basal controls and 100 nM Isoprenaline as max controls. […] The amount of ^125I-cAMP bound to the Flashplate® was quantified using a Topcount NXT (Packard), normal counting efficiency for 1 minute. Dose-response data was expressed as % Isoprenaline activity and fitted using a four parameter sigmoid fit.

T1 sequence (P07550 whole entry): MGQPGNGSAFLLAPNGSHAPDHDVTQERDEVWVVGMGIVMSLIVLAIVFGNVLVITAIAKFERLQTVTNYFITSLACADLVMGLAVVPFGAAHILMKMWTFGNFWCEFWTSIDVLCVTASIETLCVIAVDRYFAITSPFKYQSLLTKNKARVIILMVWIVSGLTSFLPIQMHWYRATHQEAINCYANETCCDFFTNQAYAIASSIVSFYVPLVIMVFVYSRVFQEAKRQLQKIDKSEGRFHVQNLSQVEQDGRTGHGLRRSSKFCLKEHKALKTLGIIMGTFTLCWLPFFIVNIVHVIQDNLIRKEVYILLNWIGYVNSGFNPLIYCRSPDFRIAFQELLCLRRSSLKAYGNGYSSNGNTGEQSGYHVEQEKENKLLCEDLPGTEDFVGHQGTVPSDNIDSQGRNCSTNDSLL

EC50: 0.076 nM
Structure (SMILES): C[C@H](Cc1cccc(CC(=O)NC23CC4CC(CC(C4)C2)C3)c1)NC[C@H](O)c1ccc(O)c(CO)c1 [example 1, N-1-Adamantyl-2-{3-[(2R)-2-({(2R)-2-hydroxy-2-[4-hydroxy-3-(hydroxymethyl)phenyl]ethyl}amino)propyl]phenyl}acetamide L-tartrate]
